Reference: patent publication US8895547B2, “Substituted phenyl-oxathiazine derivatives, method for producing them, drugs containing said compounds and the use thereof” (Sanofi, priority 2011, dated 2014)

Molecular target: T1, human 11β-HSD1 (Homo sapiens, UniProt P28845)
T1 construct: host or cells: microsome fraction
Assay: Enzymatic 11beta-HSD1 test (SPA-based detection)
Format: biochemical
Settings: human 11β-HSD1 microsome fraction, [1,2-3H]-cortisone, NADPH, 37° C. 1 hour
Protocol: Enzymatic 11beta-HSD1 test:
To measure the activity of the compounds, an SPA-based detection method (Solly et al. 2005) was employed. First of all, 20 μl of the human 11β-HSD1 microsome fraction (0.2 μg of protein), prepared in 50 mM HEPES, 0.1% BSA (w/v), were applied to a plate with 384 wells. The test compounds (0.09 μl) were applied to the assay plate in 100% DMSO. The reaction was started by addition of 20 μl of [1,2-^3H]-cortisone (0.1 μCi/[…]) in assay buffer comprising 25 mM HEPES, 100 mM KCl, 5 mM NaCl, 2 mM MgCl2 and 0.25 mM NADPH. The plate was agitated at 37° C. for 1 hour. At the same time, a stop solution comprising 20 mg/ml SPA-PVT beads, 1.6 mg/ml monoclonal cortisol antibody and 0.01 mM SSR110887 (inhibitor from the Biovitrium patent) in 50 mM HEPES, 1 M NaCl and 1 M KCl was stirred at room temperature. To stop the reaction, 25 μl of the stop solution were added to each well. The plate was agitated gently at room temperature for 1 further hour and then centrifuged at 500 gav for 1 minute, in order that the SPA beads could settle out. The plate was then read in a Wallac-1450-Microbeta unit with a standard SPA program (counting time 1 min/well). The comparative compound was glycyrrhetinic acid.
Protein and radioactive substrate were dispensed with a Biomek FX unit (Beckman Coulter) for handling liquids. The test compounds were added with a Cybi-Well equipped with a 90 nl pin tool (CyBio).
Lit.: Solly S, Mundt S S, Zokian H J, Juy-Fang Ding G, Hermanowski-Vosatka A, Strulovici B and Zheng W. High-throughput screening of 11β-Hydroxysteroid dehydrogenase type 1 in scintillation proximity format. Assay Drug Dev Technol 2005; 3:377-384.

T1 sequence (P28845 whole entry): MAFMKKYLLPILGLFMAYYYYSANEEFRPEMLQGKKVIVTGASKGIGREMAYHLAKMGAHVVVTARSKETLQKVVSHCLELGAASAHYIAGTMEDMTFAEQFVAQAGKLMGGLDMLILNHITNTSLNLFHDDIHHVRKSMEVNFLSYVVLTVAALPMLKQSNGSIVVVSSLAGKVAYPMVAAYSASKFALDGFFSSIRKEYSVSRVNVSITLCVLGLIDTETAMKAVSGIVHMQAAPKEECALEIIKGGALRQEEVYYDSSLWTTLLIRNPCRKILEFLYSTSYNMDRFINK

Row | Compound | IC50 [µM]
1 | CC(C)(C)c1ccc(C2(C)C(C)(C)OC(N[C@@H](CCO)c3ccccc3)=NS2(=O)=O)cc1 (stereo partly drawn) [Compound 62, (S)-3-[5-(4-tert-Butylphenyl)-5,6,6-trimethyl-4,4-dioxo-5,6-dihydro-4H-4lambda6-[1,4,3]oxathiazin-2-ylamino]-3-phenylpropan-1-ol] | 0.047
2 | C[C@H](NC1=NS(=O)(=O)C(C)(c2ccc(C(C)(C)C)cc2)C(C)(C)O1)c1ccccc1F (stereo partly drawn) [Compound 63, [5-(4-tert-Butylphenyl)-5,6,6-trimethyl-4,4-dioxo-5,6-dihydro-4H-4lambda6-[1,4,3]oxathiazin-2-yl]-[(S)-1-(2-fluorophenyl)ethyl]amine] | 0.032
3 | CC1(C)OC(NC2CCCCC2)=NS(=O)(=O)C1c1ccccc1 (centres unmarked) [Example 1, Cyclohexyl-(6,6-dimethyl-4,4-dioxo-5-phenyl-5,6-dihydro-4H-4lambda6-[1,4,3]oxathiazin-2-yl)-amine] | 0.113
4 | CC1(C)OC(NC2CCCCC2)=NS(=O)(=O)C1c1ccc(-c2ccccc2)cc1 (centres unmarked) [Example 3, (5-Biphenyl-4-yl-6,6-dimethyl-4,4-dioxo-5,6-dihydro-4H-4lambda6-[1,4,3]oxathiazin-2-yl)-cyclohexyl-amine] | 1.27
5 | CC1(C)OC(N[C@@H](CCO)c2ccccc2)=NS(=O)(=O)C1c1ccc(O)cc1 (stereo partly drawn) [Example 5, 4-[2-((S)-3-Hydroxy-1-phenyl-propylamino)-6,6-dimethyl-4,4-dioxo-5,6-dihydro-4H-4lambda6-[1,4,3]oxathiazin-5-yl]-phenol] | 1.67
6 | COc1ccc(C2C(C)(C)OC(N[C@@H](CCO)c3ccccc3)=NS2(=O)=O)cc1 (stereo partly drawn) [Example 6, (S)-3-[5-(4-Methoxy-phenyl)-6,6-dimethyl-4,4-dioxo-5,6-dihydro-4H-4lambda6-[1,4,3]oxathiazin-2-ylamino]-3-phenyl-propan-1-ol] | 0.029
7 | CC1(C)OC(N[C@@H](CCO)c2ccccc2)=NS(=O)(=O)C1c1ccc(-c2ccccc2)cc1 (stereo partly drawn) [Example 12, (S)-3-(5-Biphenyl-4-yl-6,6-dimethyl-4,4-dioxo-5,6-dihydro-4H-4lambda6-[1,4,3]oxathiazin-2-ylamino)-3-phenyl-propan-1-ol] | 0.045
8 | CC1(C)OC(NC2CCCCC2)=NS(=O)(=O)C1c1cccc(Br)c1 (centres unmarked) [Example 13, [5-(3-Bromophenyl)-6,6-dimethyl-4,4-dioxo-5,6-dihydro-4H-4lambda6-[1,4,3]oxathiazin-2-yl]-cyclohexyl-amine] | 0.047
9 | CC1(C)OC(N[C@@H](CCO)c2ccccc2)=NS(=O)(=O)C1c1cccc(-c2cncnc2)c1 (stereo partly drawn) [Example 14, (S)-3-[6,6-Dimethyl-4,4-dioxo-5-(3-pyrimidin-5-yl-phenyl)-5,6-dihydro-4H-4lambda6-[1,4,3]oxathiazin-2-ylamino]-3-phenyl-propan-1-ol] | 0.032
10 | CC1(C)OC(NC2CCCCC2)=NS(=O)(=O)C1(C)c1ccccc1 (centres unmarked) [Example 18, Cyclohexyl-(5,6,6-trimethyl-4,4-dioxo-5-phenyl-5,6-dihydro-4H-4lambda6-[1,4,3]oxathiazin-2-yl)-amine] | 0.036
11 | CC1(C)OC(NC2CCCCC2)=NS(=O)(=O)C1c1cccc(OCc2ccccc2)c1 (centres unmarked) [Example 19, [5-(3-Benzyloxy-phenyl)-6,6-dimethyl-4,4-dioxo-5,6-dihydro-4H-4lambda6-[1,4,3]oxathiazin-2-yl]-cyclohexyl-amine] | 0.352
12 | CC1(C)OC(NC2CCCCC2)=NS(=O)(=O)C1c1cccc(O)c1 (centres unmarked) [Example 22, 3-(2-Cyclohexylamino-6,6-dimethyl-4,4-dioxo-5,6-dihydro-4H-4lambda6-[1,4,3]oxathiazin-5-yl)-phenol] | 0.163
13 | COc1cccc(C2C(C)(C)OC(NC3CCCCC3)=NS2(=O)=O)c1 (centres unmarked) [Example 23, Cyclohexyl-[5-(3-methoxy-phenyl)-6,6-dimethyl-4,4-dioxo-5,6-dihydro-4H-4lambda6-[1,4,3]oxathiazin-2-yl]-amine] | 0.114

These reach a lower IC50. Values come first.

Row | IC50 [µM] | Compound
14 | 0.024 | CC1(C)OC(N[C@@H](CCO)c2ccccc2)=NS(=O)(=O)C1c1cccc(O)c1 (stereo partly drawn) [Example 32, 3-[2-((S)-3-Hydroxy-1-phenyl-propylamino)-6,6-dimethyl-4,4-dioxo-5,6-dihydro-4H-4lambda6-[1,4,3]oxathiazin-5-yl]-phenol]
15 | 0.022 | CC1(C)OC(N[C@@H](CCO)c2ccccc2)=NS(=O)(=O)C1c1cccc(-c2ccccc2)c1 (stereo partly drawn) [Example 8, (S)-3-(5-Biphenyl-3-yl-6,6-dimethyl-4,4-dioxo-5,6-dihydro-4H-4lambda6-[1,4,3]oxathiazin-2-ylamino)-3-phenyl-propan-1-ol]
16 | 0.022 | Cc1cccc(C2C(C)(C)OC(N[C@@H](CCO)c3ccccc3)=NS2(=O)=O)c1 (stereo partly drawn) [Example 9, (S)-3-(6,6-Dimethyl-4,4-dioxo-5-m-tolyl-5,6-dihydro-4H-4lambda6-[1,4,3]oxathiazin-2-ylamino)-3-phenyl-propan-1-ol]
17 | 0.021 | CC1(C)OC(N[C@@H](CCO)c2ccccc2)=NS(=O)(=O)C1c1cccc(Cl)c1 (stereo partly drawn) [Example 20, (S)-3-[5-(3-Chloro-phenyl)-6,6-dimethyl-4,4-dioxo-5,6-dihydro-4H-4lambda6-[1,4,3]oxathiazin-2-ylamino]-3-phenyl-propan-1-ol]
18 | 0.021 | CC1(C)OC(N[C@@H](CCO)c2ccccc2)=NS(=O)(=O)C1c1cccc(OCc2ccccc2)c1 (stereo partly drawn) [Example 24, (S)-3-[5-(3-Benzyloxy-phenyl)-6,6-dimethyl-4,4-dioxo-5,6-dihydro-4H-4lambda6-[1,4,3]oxathiazin-2-ylamino]-3-phenyl-propan-1-ol]
19 | 0.02 | CC1(C)OC(N[C@@H](CCO)c2ccccc2)=NS(=O)(=O)C1c1cccc(Br)c1 (stereo partly drawn) [Example 7, (S)-3-[5-(3-Bromophenyl)-6,6-dimethyl-4,4-dioxo-5,6-dihydro-4H-4lambda6-[1,4,3]oxathiazin-2-ylamino]-3-phenyl-propan-1-ol]
20 | 0.017 | CC1(C)OC(N[C@@H](CCO)c2ccccc2)=NS(=O)(=O)C1c1ccccc1 (stereo partly drawn) [Example 2, (S)-3-(6,6-Dimethyl-4,4-dioxo-5-phenyl-5,6-dihydro-4H-4lambda6-[1,4,3]oxathiazin-2-ylamino)-3-phenyl-propan-1-ol]
21 | 0.015 | CC1(C)OC(N[C@@H](CCO)c2ccccc2)=NS(=O)(=O)C1c1cccc(Cc2ccccc2)c1 (stereo partly drawn) [Example 10, (S)-3-[5-(3-Benzyl-phenyl)-6,6-dimethyl-4,4-dioxo-5,6-dihydro-4H-4lambda6-[1,4,3]oxathiazin-2-ylamino]-3-phenyl-propan-1-ol]
22 | 0.014 | CC1(C)OC(N[C@@H](CCO)c2ccccc2)=NS(=O)(=O)C1c1ccc(OCc2ccccc2)cc1 (stereo partly drawn) [Example 4, (S)-3-[5-(4-Benzyloxy-phenyl)-6,6-dimethyl-4,4-dioxo-5,6-dihydro-4H-4lambda6-[1,4,3]oxathiazin-2-ylamino]-3-phenyl-propan-1-ol]
23 | 0.013 | C[C@H](NC1=NS(=O)(=O)C(c2cccc(Br)c2)C(C)(C)O1)c1ccccc1F (stereo partly drawn) [Example 27, [5-(3-Bromophenyl)-6,6-dimethyl-4,4-dioxo-5,6-dihydro-4H-4lambda6-[1,4,3]oxathiazin-2-yl]-[(S)-1-(2-fluorophenyl)-ethyl]-amine]
24 | 0.011 | CC1(C)OC(N[C@@H](CCO)c2ccccc2)=NS(=O)(=O)C1c1ccccc1Cl (stereo partly drawn) [Example 15, (S)-3-[5-(2-Chlorophenyl)-6,6-dimethyl-4,4-dioxo-5,6-dihydro-4H-4lambda6-[1,4,3]oxathiazin-2-ylamino]-3-phenyl-propan-1-ol]
25 | 0.011 | Cc1ccccc1C1C(C)(C)OC(N[C@@H](CCO)c2ccccc2)=NS1(=O)=O (stereo partly drawn) [Example 16, (S)-3-(6,6-Dimethyl-4,4-dioxo-5-o-tolyl-5,6-dihydro-4H-4lambda6-[1,4,3]oxathiazin-2-ylamino)-3-phenyl-propan-1-ol]
26 | 0.01 | C[C@H](NC1=NS(=O)(=O)C(c2ccccc2)C(C)(C)O1)c1ccccc1F (stereo partly drawn) [Example 31, (6,6-Dimethyl-4,4-dioxo-5-phenyl-5,6-dihydro-4H-4lambda6-[1,4,3]oxathiazin-2-yl)-[(S)-1-(2-fluoro-phenyl)-ethyl]-amine]
27 | 0.009 | Cc1ccc(C2C(C)(C)OC(N[C@@H](CCO)c3ccccc3)=NS2(=O)=O)cc1 (stereo partly drawn) [Example 11, (S)-3-(6,6-Dimethyl-4,4-dioxo-5-p-tolyl-5,6-dihydro-4H-4lambda6-[1,4,3]oxathiazin-2-ylamino)-3-phenyl-propan-1-ol]
28 | 0.008 | CC1(C)OC(N[C@@H](CCO)c2ccccc2)=NS(=O)(=O)C1(C)c1cccc(Br)c1 (stereo partly drawn) [Example 33, (S)-3-[5-(3-Bromophenyl)-5,6,6-trimethyl-4,4-dioxo-5,6-dihydro-4H-4lambda6-[1,4,3]oxathiazin-2-ylamino]-3-phenyl-propan-1-ol]
29 | 0.007 | C[C@H](NC1=NS(=O)(=O)C(C)(c2cccc(Br)c2)C(C)(C)O1)c1ccccc1F (stereo partly drawn) [Example 30, [5-(3-Bromophenyl)-5,6,6-trimethyl-4,4-dioxo-5,6-dihydro-4H-4lambda6-[1,4,3]oxathiazin-2-yl]-[(S)-1-(2-fluorophenyl)-ethyl]-amine]
